Kd data for one compound are collected here from paper PMC9862227, “ATP and nucleic acids competitively modulate LLPS of the SARS-CoV2 nucleocapsid protein” (Communications Biology, 2023).

For orientation: Kd means the constant that tells how readily two partners part at equilibrium.

The assay concerns the target T1, N (1-249) (Severe acute respiratory syndrome coronavirus 2, UniProt P0DTC9).
T1 construct: fragment 1-249 of the 419-residue protein (IDR1, NTD, IDR2); pET-28a, N-terminal 6xHis-SUMO tag removed with TEV protease; E. coli BL21; 15N-labelled
Nature of the assay: biochemical. Type of assay: binding.

In the case of `Nc1ncnc2c1ncn2[C@@H]1O[C@H](COP(=O)(O)OP(=O)(O)OP(=O)(O)O)[C@@H](O)[C@H]1O` [ATP], the equilibrium dissociation constant (Kd) amounted to 2000 ± 200 µM.
